The AC50 is the concentration at which the activity in the assay is half-maximal. A higher AC50 goes with weaker potency.

Assay [1] has as its target Epidermal growth factor receptor (Homo sapiens, UniProt P00533). In kind it is functional.
In the next assay the target is T1, Glucocorticoid receptor (Homo sapiens, UniProt P04150).
T1 sequence (P04150 whole entry): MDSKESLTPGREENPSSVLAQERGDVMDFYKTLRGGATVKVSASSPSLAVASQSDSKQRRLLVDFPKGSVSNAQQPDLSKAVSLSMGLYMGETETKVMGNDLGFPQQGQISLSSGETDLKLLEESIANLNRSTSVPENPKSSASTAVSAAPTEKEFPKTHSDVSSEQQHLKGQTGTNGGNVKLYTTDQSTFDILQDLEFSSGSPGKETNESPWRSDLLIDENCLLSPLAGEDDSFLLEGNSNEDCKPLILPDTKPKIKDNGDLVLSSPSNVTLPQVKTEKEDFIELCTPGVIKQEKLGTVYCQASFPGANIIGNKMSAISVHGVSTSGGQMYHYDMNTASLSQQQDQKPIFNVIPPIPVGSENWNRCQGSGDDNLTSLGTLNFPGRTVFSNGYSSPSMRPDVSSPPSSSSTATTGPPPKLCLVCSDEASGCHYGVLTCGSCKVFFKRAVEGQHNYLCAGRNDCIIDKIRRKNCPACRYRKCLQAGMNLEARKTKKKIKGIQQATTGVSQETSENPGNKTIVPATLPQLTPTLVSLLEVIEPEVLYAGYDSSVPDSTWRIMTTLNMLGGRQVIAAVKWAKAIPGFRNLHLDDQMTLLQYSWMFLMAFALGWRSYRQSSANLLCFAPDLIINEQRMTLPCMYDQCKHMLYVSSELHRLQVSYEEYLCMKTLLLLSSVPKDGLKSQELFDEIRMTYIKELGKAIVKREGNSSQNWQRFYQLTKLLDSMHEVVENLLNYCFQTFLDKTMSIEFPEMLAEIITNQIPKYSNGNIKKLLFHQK
The class given is functional.

Another assay deals with T2, Estrogen receptor (Homo sapiens, UniProt P03372).
T2 sequence (P03372 whole entry): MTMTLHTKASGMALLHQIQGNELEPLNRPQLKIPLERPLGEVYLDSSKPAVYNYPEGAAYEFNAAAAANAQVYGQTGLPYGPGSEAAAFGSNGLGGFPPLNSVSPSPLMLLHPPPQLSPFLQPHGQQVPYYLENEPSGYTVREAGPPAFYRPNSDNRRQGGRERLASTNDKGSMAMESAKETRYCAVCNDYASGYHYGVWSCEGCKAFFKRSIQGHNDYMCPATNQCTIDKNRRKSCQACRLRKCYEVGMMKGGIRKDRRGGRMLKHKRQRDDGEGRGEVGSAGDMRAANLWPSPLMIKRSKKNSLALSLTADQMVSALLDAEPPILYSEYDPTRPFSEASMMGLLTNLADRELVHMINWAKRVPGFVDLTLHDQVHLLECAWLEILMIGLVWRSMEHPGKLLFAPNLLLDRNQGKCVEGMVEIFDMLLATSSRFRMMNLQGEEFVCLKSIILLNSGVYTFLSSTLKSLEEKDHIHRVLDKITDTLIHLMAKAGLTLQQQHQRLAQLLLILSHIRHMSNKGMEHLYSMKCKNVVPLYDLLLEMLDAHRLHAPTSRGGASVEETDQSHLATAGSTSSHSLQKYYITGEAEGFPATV
The class given is functional.

A further assay concerns the target T3, Androgen receptor (Rattus norvegicus, UniProt P15207).
T3 sequence (P15207 whole entry): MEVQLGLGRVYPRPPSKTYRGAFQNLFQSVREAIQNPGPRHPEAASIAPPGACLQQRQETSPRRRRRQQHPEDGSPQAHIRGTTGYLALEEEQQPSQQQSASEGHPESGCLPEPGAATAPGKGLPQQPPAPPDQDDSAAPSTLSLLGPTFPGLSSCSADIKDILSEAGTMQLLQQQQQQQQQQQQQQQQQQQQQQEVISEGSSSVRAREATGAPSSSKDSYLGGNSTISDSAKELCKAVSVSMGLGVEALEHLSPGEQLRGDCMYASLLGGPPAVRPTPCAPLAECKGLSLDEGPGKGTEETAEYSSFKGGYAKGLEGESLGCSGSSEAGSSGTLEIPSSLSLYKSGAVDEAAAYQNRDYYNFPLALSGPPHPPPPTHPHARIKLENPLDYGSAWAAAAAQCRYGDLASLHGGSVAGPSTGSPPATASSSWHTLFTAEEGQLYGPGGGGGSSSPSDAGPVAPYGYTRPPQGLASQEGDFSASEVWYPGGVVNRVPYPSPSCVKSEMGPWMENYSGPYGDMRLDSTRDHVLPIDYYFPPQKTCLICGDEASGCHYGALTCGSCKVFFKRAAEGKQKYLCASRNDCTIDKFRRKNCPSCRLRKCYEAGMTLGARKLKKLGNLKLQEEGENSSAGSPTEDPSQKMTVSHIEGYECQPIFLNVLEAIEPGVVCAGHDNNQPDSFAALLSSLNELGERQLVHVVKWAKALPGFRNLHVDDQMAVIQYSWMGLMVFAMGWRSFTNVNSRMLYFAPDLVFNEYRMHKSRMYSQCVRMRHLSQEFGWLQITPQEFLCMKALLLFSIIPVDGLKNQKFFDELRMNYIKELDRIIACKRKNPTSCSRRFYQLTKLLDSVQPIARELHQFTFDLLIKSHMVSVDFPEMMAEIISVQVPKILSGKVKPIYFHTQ
In kind it is functional.

The target in assay [2] is 5-hydroxytryptamine receptor 6 (Homo sapiens, UniProt P50406).
In assay [3] the target is T4, Alpha-1A adrenergic receptor (Homo sapiens, UniProt P35348).
T4 sequence (P35348 whole entry): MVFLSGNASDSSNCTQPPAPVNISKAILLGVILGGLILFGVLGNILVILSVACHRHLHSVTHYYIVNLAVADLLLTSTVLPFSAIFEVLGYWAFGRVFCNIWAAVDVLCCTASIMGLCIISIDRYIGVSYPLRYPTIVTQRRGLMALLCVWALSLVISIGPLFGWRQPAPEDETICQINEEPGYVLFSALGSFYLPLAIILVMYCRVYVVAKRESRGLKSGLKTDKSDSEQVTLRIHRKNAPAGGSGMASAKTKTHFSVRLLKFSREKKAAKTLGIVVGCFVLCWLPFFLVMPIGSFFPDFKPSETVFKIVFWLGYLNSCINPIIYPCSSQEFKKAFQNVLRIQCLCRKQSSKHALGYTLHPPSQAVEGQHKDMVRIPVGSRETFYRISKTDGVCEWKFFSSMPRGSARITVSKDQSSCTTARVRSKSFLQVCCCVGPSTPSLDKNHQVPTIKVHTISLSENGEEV

For another assay, the target named is Melanocortin receptor 4 (Homo sapiens, UniProt P32245).
Further: assay procedure not described here.

Melanocortin receptor 4, sequence (P32245 whole entry): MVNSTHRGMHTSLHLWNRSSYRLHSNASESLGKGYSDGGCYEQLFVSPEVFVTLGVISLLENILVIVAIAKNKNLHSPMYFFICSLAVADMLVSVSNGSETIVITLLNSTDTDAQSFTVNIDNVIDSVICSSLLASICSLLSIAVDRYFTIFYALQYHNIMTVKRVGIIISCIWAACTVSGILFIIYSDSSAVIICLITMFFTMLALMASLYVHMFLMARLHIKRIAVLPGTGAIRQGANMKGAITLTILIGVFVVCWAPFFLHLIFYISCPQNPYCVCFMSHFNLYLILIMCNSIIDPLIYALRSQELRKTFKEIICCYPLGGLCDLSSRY
Epidermal growth factor receptor, sequence (P00533 whole entry): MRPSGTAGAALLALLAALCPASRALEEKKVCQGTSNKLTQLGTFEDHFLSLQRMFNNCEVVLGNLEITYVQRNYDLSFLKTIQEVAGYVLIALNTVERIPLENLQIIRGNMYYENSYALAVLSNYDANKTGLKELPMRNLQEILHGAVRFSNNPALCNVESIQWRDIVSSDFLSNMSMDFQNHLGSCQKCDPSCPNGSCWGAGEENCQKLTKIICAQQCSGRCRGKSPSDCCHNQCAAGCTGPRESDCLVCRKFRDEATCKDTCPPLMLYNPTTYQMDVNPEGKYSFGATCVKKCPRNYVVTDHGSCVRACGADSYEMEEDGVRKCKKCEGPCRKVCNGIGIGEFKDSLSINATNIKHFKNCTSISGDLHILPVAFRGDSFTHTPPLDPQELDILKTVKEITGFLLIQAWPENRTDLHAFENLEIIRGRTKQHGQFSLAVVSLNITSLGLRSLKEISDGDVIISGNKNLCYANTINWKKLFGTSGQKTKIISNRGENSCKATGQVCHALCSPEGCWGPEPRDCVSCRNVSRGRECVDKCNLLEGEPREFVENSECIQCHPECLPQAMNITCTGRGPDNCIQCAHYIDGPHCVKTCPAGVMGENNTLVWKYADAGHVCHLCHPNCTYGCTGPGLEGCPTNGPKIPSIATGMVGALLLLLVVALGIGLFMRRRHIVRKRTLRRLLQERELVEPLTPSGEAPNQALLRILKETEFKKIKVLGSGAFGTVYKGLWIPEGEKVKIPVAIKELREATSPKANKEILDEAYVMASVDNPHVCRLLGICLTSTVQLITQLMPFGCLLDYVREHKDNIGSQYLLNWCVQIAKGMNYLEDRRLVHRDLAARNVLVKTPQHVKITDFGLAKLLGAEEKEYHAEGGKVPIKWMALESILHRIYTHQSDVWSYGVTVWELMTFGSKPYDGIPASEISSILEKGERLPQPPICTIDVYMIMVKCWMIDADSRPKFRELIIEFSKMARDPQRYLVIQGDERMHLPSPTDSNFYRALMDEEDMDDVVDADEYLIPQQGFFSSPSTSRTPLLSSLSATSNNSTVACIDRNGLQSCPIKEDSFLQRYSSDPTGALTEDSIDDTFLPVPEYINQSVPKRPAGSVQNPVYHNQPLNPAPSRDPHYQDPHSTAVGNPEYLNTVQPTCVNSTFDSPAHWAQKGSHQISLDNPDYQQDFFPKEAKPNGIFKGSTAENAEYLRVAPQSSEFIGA
5-hydroxytryptamine receptor 6, sequence (P50406 whole entry): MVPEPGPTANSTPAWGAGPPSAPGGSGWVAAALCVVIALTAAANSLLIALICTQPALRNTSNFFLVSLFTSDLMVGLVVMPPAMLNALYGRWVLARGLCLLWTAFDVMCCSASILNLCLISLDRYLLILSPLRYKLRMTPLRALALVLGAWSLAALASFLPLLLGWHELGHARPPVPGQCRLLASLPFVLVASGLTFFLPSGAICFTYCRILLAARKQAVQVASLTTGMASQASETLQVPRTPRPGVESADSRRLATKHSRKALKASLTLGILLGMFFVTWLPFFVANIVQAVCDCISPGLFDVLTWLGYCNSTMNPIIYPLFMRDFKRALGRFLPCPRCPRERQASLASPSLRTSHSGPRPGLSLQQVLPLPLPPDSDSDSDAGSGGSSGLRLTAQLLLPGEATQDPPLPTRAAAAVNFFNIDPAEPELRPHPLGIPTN

With `CC(=N)N1CC[C@H](SC2=C(C(=O)O)N3C(=O)[C@H]([C@@H](C)O)[C@H]3C2)C1`, the AC50 (in assay [1]; on Glucocorticoid receptor; on Estrogen receptor; on Androgen receptor) was above 300 µM each time.
Regarding `CC1(C)S[C@@H]2[C@H](NC(=O)[C@H](N)c3ccc(O)cc3)C(=O)N2[C@H]1C(=O)O` [AMOXICILLIN], the AC50 in assay [2] was above 10 µM; on Androgen receptor, above 30 µM; in assay [3], above 10 µM; at Melanocortin receptor 4 it was above 30 µM.
Take `O=C1CN2Cc3c(ccc(Cl)c3Cl)N=C2N1` [ANAGRELIDE]: the AC50 at Melanocortin receptor 4 is above 30 µM.
On Androgen receptor, `CNCC[C@@H](Oc1ccccc1C)c1ccccc1` [ATOMOXETINE] came in with an AC50 above 30 µM.
On to `CCc1oc2ccccc2c1C(=O)c1cc(Br)c(O)c(Br)c1` [BENZBROMARONE], for which the AC50 was above 30 µM at Glucocorticoid receptor, 7.6 µM at Estrogen receptor, above 30 µM at Androgen receptor and above 30 µM on Melanocortin receptor 4.
The molecule `[H]/N=C(\N/C(=N/[H])NCCCCCCNC(=N)NC(=N)Nc1ccc(Cl)cc1)Nc1ccc(Cl)cc1` [CHLORHEXIDINE] displayed a half-maximal activity concentration (AC50) on Melanocortin receptor 4 of 0.271 µM.
Same read-out and setting: under `Clc1cccc(Cl)c1N=C1NCCN1` [CLONIDINE] stands above 30 µM.
Turning to `COC(=O)[C@H](c1ccccc1Cl)N1CCc2sccc2C1` [CLOPIDOGREL], the half-maximal activity concentration (AC50) in assay [2] was above 10 µM; on Glucocorticoid receptor, above 30 µM; at Estrogen receptor it was above 30 µM; in assay [3] it was above 10 µM; on Melanocortin receptor 4, above 30 µM.
Take `CN1C[C@H](C(=O)N[C@]2(C)O[C@@]3(O)[C@@H]4CCCN4C(=O)[C@H](Cc4ccccc4)N3C2=O)C[C@@H]2c3cccc4[nH]cc(c34)C[C@H]21` [DIHYDROERGOTAMINE]: the AC50 at Melanocortin receptor 4 is above 30 µM.
Same read-out and setting: for `CNCC[C@H](Oc1cccc2ccccc12)c1cccs1` [DULOXETINE] the value was 17.8 µM.
As for `C#Cc1cccc(Nc2ncnc3cc(OCCOC)c(OCCOC)cc23)c1` [ERLOTINIB], the AC50 on Glucocorticoid receptor and at Estrogen receptor was above 30 µM each time.
For `CC1(C)O[C@@H]2C[C@H]3[C@@H]4C[C@H](F)C5=CC(=O)C=C[C@]5(C)[C@H]4[C@@H](O)C[C@]3(C)[C@]2(C(=O)CO)O1` [FLUNISOLIDE], the AC50 on Glucocorticoid receptor and on Estrogen receptor was above 30 µM throughout.
Take `Cc1cnc(NC(=O)C2=C(O)c3ccccc3S(=O)(=O)N2C)s1` [MELOXICAM]: the AC50 in assay [2] is above 10 µM; in assay [3] it was above 10 µM; on Melanocortin receptor 4, above 30 µM.
In turn, `CC(=O)/N=c1/sc(S(N)(=O)=O)nn1C` [METHAZOLAMIDE] showed an AC50 on Melanocortin receptor 4 above 10 µM.
`CC[C@@H](CO)NC(=O)[C@@H]1C=C2c3cccc4[nH]cc(c34)C[C@H]2N(C)C1` [METHYLERGONOVINE]: the activity at Androgen receptor was half-maximal at 18 µM (AC50).
The molecule `CNCCC=C1c2ccccc2CCc2ccccc21` [NORTRIPTYLINE] displayed an AC50 in assay [2] of 0.256 µM.
Molecule `CN(C)c1cc(CNCC(C)(C)C)c(O)c2c1C[C@H]1C[C@H]3[C@H](N(C)C)C(O)=C(C(N)=O)C(=O)[C@@]3(O)C(O)=C1C2=O` [OMADACYCLINE] yielded an AC50 at Androgen receptor above 30 µM.
For the molecule `COc1ccnc(C[S+]([O-])c2nc3ccc(OC(F)F)cc3[nH]2)c1OC` (stereo unspecified) [PANTOPRAZOLE], the AC50 is above 10 µM in assay [3] and above 30 µM at Melanocortin receptor 4.
On Androgen receptor, `COc1ccc(Cc2nccc3cc(OC)c(OC)cc23)cc1OC` [PAPAVERINE] gave an AC50 above 30 µM.
Consider `CNC[C@H](O)c1cccc(O)c1` [PHENYLEPHRINE], for which the AC50 in assay [2] is above 10 µM; at Melanocortin receptor 4, above 30 µM.
Take `O=C1NC(=O)C(c2ccccc2)(c2ccccc2)N1` [PHENYTOIN]: the AC50 (in assay [1]; at Glucocorticoid receptor; on Melanocortin receptor 4) was above 30 µM each time.
Take `CC(C)C[C@H](CN)CC(=O)O` [PREGABALIN]: the AC50 (in assay [1]; at Glucocorticoid receptor; on Estrogen receptor; at Melanocortin receptor 4) was above 30 µM each time.
On to `CNC(=O)c1cc(Oc2ccc(NC(=O)Nc3ccc(Cl)c(C(F)(F)F)c3)c(F)c2)ccn1` [REGORAFENIB], for which the AC50 at Glucocorticoid receptor was 17 µM; on Androgen receptor it was above 30 µM.
Regarding `CCOc1cc(CC(=O)N[C@@H](CC(C)C)c2ccccc2N2CCCCC2)ccc1C(=O)O` [REPAGLINIDE], the AC50 on Glucocorticoid receptor and at Androgen receptor was above 30 µM in each case.
`NC(=O)c1ncn([C@@H]2O[C@H](CO)[C@@H](O)[C@H]2O)n1` [RIBAVIRIN]: the AC50 at Melanocortin receptor 4 was above 10 µM.
`O=C(Nc1c(Cl)cncc1Cl)c1ccc(OC(F)F)c(OCC2CC2)c1` [ROFLUMILAST]: the AC50 at Androgen receptor is above 30 µM.
Consider `CCCN(CCC)CCc1cccc2c1CC(=O)N2` [ROPINIROLE], for which the AC50 (in assay [1]; on Glucocorticoid receptor; on Melanocortin receptor 4) was above 30 µM in each case.
For the molecule `CC[C@H]1OC(=O)[C@H](C)[C@@H](O[C@H]2C[C@@](C)(OC)[C@@H](O)[C@H](C)O2)[C@H](C)[C@@H](O[C@@H]2O[C@H](C)C[C@H](N(C)C)[C@H]2O)[C@](C)(O)C[C@@H](C)/C(=N\OCOCCOC)[C@H](C)[C@@H](O)[C@]1(C)O` [ROXITHROMYCIN], the concentration at half-maximal activity (AC50) (in assay [1]; at Glucocorticoid receptor; at Estrogen receptor) was above 30 µM in each case.
On to `CC(C)N(CCCCOCC(=O)NS(C)(=O)=O)c1cnc(-c2ccccc2)c(-c2ccccc2)n1` [SELEXIPAG], for which the AC50 at Androgen receptor is above 30 µM.
As to `CCCCNc1ccc(C(=O)OCCN(C)C)cc1` [TETRACAINE], the values for the AC50 (in assay [2]; in assay [3]; on Melanocortin receptor 4) were above 10 µM, above 10 µM and above 30 µM, respectively.
For `Cn1c(=O)c2[nH]cnc2n(C)c1=O` [THEOPHYLLINE], the AC50 on Melanocortin receptor 4 is above 30 µM.
Regarding `CC1(C)O[C@@H]2[C@@H](CO[C@@]3(COS(N)(=O)=O)OC(C)(C)O[C@@H]23)O1` [TOPIRAMATE], the half-maximal activity concentration (AC50) in assay [2] is above 10 µM; in assay [3], above 10 µM; at Melanocortin receptor 4, above 30 µM.
